# Data taken from US20160228403A1, “AGENT FOR PREVENTING OR AMELIORATING RENAL DYSFUNCTION” (TOHOKU UNIVERSITY, priority 2013, published 2016).
# How the values were obtained:
# F4/80 = assay: DAB staining of renal failure marker protein F4/80 in renal tissue sections; format: in vivo, mice; settings: lubiprostone 50 or 500 μg/kg vs corn oil administration group; FIG. 4 upper
# Experimental: (§1) [3] The adenine-diet fed group was fed by returning the feed to the ordinary feed after 6 weeks of adenine-diet feeding (at 13 weeks of age) and divided into 3 administration groups (“corn-oil administration group” [vehicle], “lubiprostone 50 administration group” [Lubi50], and “lubiprostone 500 administration group” [Lubi500]; corn oil, 50 μg/kg (mouse body weight) of lubiprostone dissolved in corn oil [Amitiza capsule] [from Abbot Japan Co., Ltd.], and 500 μg/kg (mouse body weight) of lubiprostone dissolved in corn oil [from Abbot Japan Co., Ltd.] were forcibly orally administered using a sound to the “corn-oil administration group”, “lubiprostone 50 administration group”, and “lubiprostone 500 administration group”, respectively once daily for 12 days.
# (§2) Renal tissue sections were prepared to perform detailed renal tissue analysis. The renal tissue of the chronic renal failure model mice to which lubiprostone was administered prepared by the method described in Example 1 was fixed in 10% neutral-buffer formalin and embedded in paraffin. The paraffin-embedded renal tissue was sliced and analyzed using 3 histological staining methods (periodic acid-Schiff stain [PAS], Masson's trichrome stain [MTS], and picrosirius red stain) (FIG. 3).
# (§3) F4/80 and αSMA are known as renal failure markers. […]
# [1] = test system: Col1a1, Col3a1, Tgfb1, and Acta2; assay: Quantitative PCR of fibrosis-related marker mRNA in whole kidney; format: in vivo, mice
# Experimental: [3] […]
# (§4) In addition, 8 renal failure markers other than F4/80 and αSMA (4 nephritis-related markers [Tnfa, Il6, Pai-1, and Ccl2] and 4 fibrosis-related markers [Col1a1, Col3a1, Tgfb1, and Acta2]) were also analyzed. […] The expression level of mRNA of genes of the 8 renal failure markers (the 4 nephritis-related markers and the 4 fibrosis-related markers) was detected by performing quantitative PCR using Fast start universal probe master (from Roche Co., Ltd.) under the conditions described in the following 1) to 2). […]
# (§5) The number of PCR cycles at which each PCR product reaches a certain amount (threshold cycle: Ct value) was measured using Baseline software (from Applied Biosystems Co., Ltd.); the relative Ct value of the cDNA amplification product of the gene of each of the 8 renal failure markers (the 4 nephritis-related markers and the 4 fibrosis-related markers) based on the Ct value of the cDNA amplification product of the GAPDH gene was determined by a comparative Ct method (delta-delta Ct method); and the relative amount of cDNA of the gene of each of the 8 renal failure markers (the 4 nephritis-related markers and the 4 fibrosis-related markers), i.e., the relative amount of mRNA of the gene of each of the 8 renal failure markers (the 4 nephritis-related markers and the 4 fibrosis-related markers), was calculated from the relative Ct value (see the ordinate of FIG. 5).
# [2] = test system: chronic renal failure model mice; assay: Histological analysis of renal tissue (PAS, MTS, picrosirius red) of chronic renal failure model mice; format: in vivo
# Experimental: (§6) Chronic renal failure model mice to which lubiprostone was administered were prepared according to a method consisting of the following processes to [4]. The body weight of mice was measured on a weekly basis, and blood pressure was measured by a tailcuff method.
# (§7) [1] Male C57BL/6 mice (purchased from Clea Japan, Inc.) were fed on an ordinary feed (CE-2 from Clea Japan, Inc.) until 6 weeks of age.
# (§8) [2] At 7 weeks of age, the mice were divided into an ordinary fed group fed on the ordinary feed (control) and an adenine-diet fed group fed on an ordinary feed containing 0.2% adenine (from Wako) (adenine-diet).
# as §1
# [4] After 24 hours, the mice were subjected to cervical dislocation.
# as §2
# [3] = test system: chronic renal failure model mice; assay: BUN and hemoglobin level in blood of chronic renal failure model mice (i-STAT); format: in vivo
# Experimental: The present invention will be more specifically described below with reference to Examples. However, these Examples are not intended to limit the technical scope of the present invention. In Examples, to confirm that the administration of lubiprostone (trade name: Amitiza) could ameliorate renal function, chronic renal failure model mice were prepared by causing mice to eat adenine and analysis was performed using the chronic renal failure model mice. The chronic renal failure model mice are mice in which nephropathy occurs by the crystallization of the eaten adenine in the uriniferous tubule in the form of insoluble 2,8-dihydroxyadenine (Cozzolino, M. et al. Kidney Int. 64, 441-450 (2003) and Tamagaki, K. et al. Nephrol. Dial. Transplant 21, 651-659 (2006)). All experimental animals were operated after approval by the Ethics Committee of Tohoku University School of Medicine.
# as §6, §7, §8
# [3] […]
# Blood was collected according to an established method from the chronic renal failure model mice to which lubiprostone was administered prepared by the method described in Example 1, and the level of BUN in the blood of the mice was measured using i-STAT (from Fuso) (FIG. 2).
# αSMA = assay: DAB staining of renal failure marker protein αSMA in renal tissue sections; format: in vivo, mice; settings: lubiprostone 50 or 500 μg/kg vs corn oil administration group; FIG. 4 lower
# Experimental: as §1, §2, §3
# [4] = test system: Tnfa, Il6, Pai-1, and Ccl2; assay: Quantitative PCR of nephritis-related marker mRNA in whole kidney; format: in vivo, mice
# Experimental: [3] […]
# as §4, §5
# [5] = Body weight of chronic renal failure model mice given lubiprostone; format: in vivo; settings: adenine-diet mice; lubiprostone 50 or 500 μg/kg orally once daily for 12 days; FIG. 1
# Experimental: as §6, §7, §8
# [3] […]
# In the 4 groups (the ordinary fed group, the corn-oil administration group, the lubiprostone 50 administration group, and the lubiprostone 500 administration group), the body weight of mice at 7 weeks of age (immediately after adenine-diet feeding), at 9 weeks of age (at 2 weeks of age after adenine-diet feeding), at 11 weeks of age (at 4 weeks of age after adenine-diet feeding), at 13 weeks of age (immediately after lubiprostone administration), and at cervical dislocation (at 13/7 [≈1.86] weeks after lubiprostone administration) was measured; the results are shown in FIG. 1.
# [6] = lubiprostone 500 administration group (500 μg/kg), Dunnett test, FIG. 5
structure (smiles),measurement,setting,value
"CCCCC(F)(F)C(=O)CC[C@H]1[C@H](O)CC(=O)[C@@H]1CCCCCCC(=O)O [lubiprostone, (−)-7-[(2R,4aR,5R,7aR)-2-(1,1-difluoropentyl)-2-hydroxy-6-oxooctahydrocyclopenta[b]pyran-5-yl]heptanoic acid]",increase in the expression of renal failure marker F4/80 protein,F4/80,suppressed
same,"mRNA of the 4 fibrosis-related markers, statistical difference to the corn oil administration group",[1]; [6],a significant difference was noted
same,"expression level of mRNA of the 4 fibrosis-related markers (Col1a1, Col3a1, Tgfb1, Acta2)","[1]; relative to GAPDH, lubiprostone 50 or 500 μg/kg vs corn oil administration group, FIG. 5 panel B",decreased the expression level of mRNA
same,"fibrosis of the kidney, collagen fiber staining by picrosirius red stain, renal tissue sections","[2]; lubiprostone 50 or 500 μg/kg vs corn oil administration group, FIG. 3 panel A bottom",the fibrosis of the kidney was suppressed
same,"fibrosis of the kidney, collagen fiber staining by MTS method, renal tissue sections","[2]; lubiprostone 50 or 500 μg/kg vs corn oil administration group, FIG. 3 panel A middle",the fibrosis of the kidney was suppressed
same,"uriniferous tubule, PAS stain of renal tissue sections","[2]; lubiprostone 50 or 500 μg/kg vs corn oil administration group, FIG. 3 panel A top",recovery of the uriniferous tubule was noted
same,"fibrosis of the kidney, collagen fiber staining by MTS method, whole kidney","[2]; lubiprostone 50 or 500 μg/kg vs corn oil administration group, FIG. 3 panel B top",the fibrosis of the kidney was suppressed
same,"decrease of the renal uriniferous tubule (tubules area, MTS method, whole kidney)","[2]; lubiprostone 50 or 500 μg/kg vs corn oil administration group, FIG. 3 panels B bottom and C",suppressed in a manner dependent on the dose of lubiprostone
same,"proportion of the renal uriniferous tubule in the whole kidney, statistical difference to the corn oil administration group","[2]; lubiprostone 500 administration group (500 μg/kg), Dunnett test p<0.01, FIG. 3 panel C",a significant difference was noted
same,level of hemoglobin (Hb) in the blood,[3]; chronic renal failure model mice given lubiprostone,did not change
same,increase in the blood BUN level,"[3]; lubiprostone 50 or 500 μg/kg orally once daily for 12 days vs corn oil administration group, FIG. 2",suppressed in a manner dependent on the dose of lubiprostone
same,"blood BUN level, statistical difference to the corn oil administration group","[3]; lubiprostone 500 administration group (500 μg/kg), Dunnett test p<0.05, FIG. 2",a significant difference was noted
same,increase in the expression of renal failure marker αSMA protein,αSMA,suppressed
same,"mRNA of 3 nephritis-related markers (excluding Il6), statistical difference to the corn oil administration group",[4]; [6],a significant difference was noted
same,"expression level of mRNA of the 4 nephritis-related markers (Tnfa, Il6, Pai-1, Ccl2)","[4]; relative to GAPDH, lubiprostone 50 or 500 μg/kg vs corn oil administration group, FIG. 5 panel A",decreased the expression level of mRNA
same,recovery of body weight after return to ordinary feed,[5],did not affect the recovery of body weight
